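Five compound concentrations were applied to cells in 96-well plates for 48 hours; endpoints were derived by simple linear interpolation of the resulting dose-response curve. GI50 = concentration required for 50% inhibition of growth. At the TGI there is no net growth.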
Legend:
Experiment in all cases: growth of human tumour cells (NCI), 48 h
OVCAR-5 ovarian = test system: OVCAR-5 ovarian
MOLT-4 leukemia = test system: MOLT-4 leukemia
SF-295 CNS = test system: SF-295 CNS
CCRF-CEM leukemia = test system: CCRF-CEM leukemia
DU-145 prostate = test system: DU-145 prostate
K-562 leukemia = test system: K-562 leukemia
MALME-3M melanoma = test system: MALME-3M melanoma
NCI-H522 lung = test system: NCI-H522 lung
HCT-116 colon = test system: HCT-116 colon
SN12C renal = test system: SN12C renal

Structure (SMILES) | GI50 (OVCAR-5 ovarian) [µM] | TGI (OVCAR-5 ovarian) [µM] | GI50 (MOLT-4 leukemia) [µM] | TGI (MOLT-4 leukemia) [µM] | GI50 (SF-295 CNS) [µM] | TGI (SF-295 CNS) [µM] | GI50 (CCRF-CEM leukemia) [µM] | TGI (CCRF-CEM leukemia) [µM] | GI50 (DU-145 prostate) [µM] | TGI (DU-145 prostate) [µM] | GI50 (K-562 leukemia) [µM] | TGI (K-562 leukemia) [µM] | GI50 (MALME-3M melanoma) [µM] | TGI (MALME-3M melanoma) [µM] | GI50 (NCI-H522 lung) [µM] | TGI (NCI-H522 lung) [µM] | GI50 (HCT-116 colon) [µM] | TGI (HCT-116 colon) [µM] | GI50 (SN12C renal) [µM] | TGI (SN12C renal) [µM]
CCCCCC(=O)Oc1ccc(/C(=C(\C)c2ccc(OC)cc2)c2ccc(OCCN3CCCCC3)cc2)cc1 | 12.7 | 27 | 3.54 | 18.8 | 2.28 | 6.32 | 4.2 | 31.8 | 13.5 | 26.6 | 3.16 | 16.2 | 2.84 | 10.4 | 14.4 | 30.5 | 7.36 | 20.5 | 10.8 | 23.5
Cc1c(-c2nc(N)nc(C3CC3)c2C)nc(N)nc1C1CC1 |  | > 100 |  | > 100 |  | > 100 |  | > 100 |  | > 100 |  | > 100 |  | > 100 |  | > 100 |  | > 100 |  | > 100
CCN(CCO)CCNc1ccc(C)c2sc3cc(Cl)ccc3c(=O)c12 | 1.59 | 3.3 | 1.27 | 3.01 | 1.61 | 3.19 | 1.52 | 3.46 | 1.57 | 2.94 | 0.32 | 1.42 | 1.86 | 3.51 | 1.56 | 3.21 | 1.34 | 2.72 | 1.47 | 3.11
Cc1ccc(C(=O)CC(Sc2cccc(Cl)c2Cl)c2ccc(Cl)cc2)cc1C (centres undefined) | 22.4 | 59.8 | 33 | > 100 | 16.9 | 37.2 | 18.7 | 94.4 | 16.1 | 34.9 | 27.2 | > 100 | 15.5 | 39.9 | 26.2 | 61.9 | 19.4 | 49.8 | 16.1 | 32.7
COc1ccc(C2C(C#N)=C(N)OC3=C2CCCc2ccc(F)cc23)cc1OC (centres undefined) | 24.7 | 65.2 | > 38.2 | > 66.9 | 33.2 | > 57.3 |  | 0.0686 | 19.1 | 36.9 | 26.6 | > 100 | 18.5 | 40 | 17.8 | 37.6 | 11 | 39.1 | 19.7 | 39.5
COc1cc(-c2cn(C)c(=O)c(C)c2C)cc(OC)c1CN1CC[C@H](N2CCN(c3ccc(N[C@H]4CCC(=O)NC4=O)cc3F)CC2)C(F)(F)C1 | 15.8 | 31.5 | 21.2 | > 100 | 11.9 | 25.5 | 19.4 | > 100 | 27.6 | > 100 | 9.44 | > 100 | 15 | 30.1 | 8.09 | 24.1 | 13.1 | 27.7 | 11.6 | 26.8
CC(C)(C)c1nc2c(o1)C(=Nc1ccc(F)cc1)c1ccccc1C2=O |  | 34.3 |  | > 100 |  | 19.6 |  | > 100 |  | 29.4 |  | > 100 |  | 4.45 |  | 20.5 |  | 38.2 |  | 23.8
CC(=O)n1c(-c2ccc(Cl)cc2)nc2c(c1=O)C(c1ccc(Cl)cc1)c1sc3c(Cl)cccc3c1O2 (centres undefined) | 1.72 | 4.31 | 0.409 | 2.54 | 0.31 | 1.24 | 0.383 | 4.12 | 0.499 | 2.38 | 0.405 | 2.32 | 0.669 | 2.5 | 0.296 | 1.63 | 0.301 | 1.44 | 0.715 | 2.56
Oc1c(Br)cc(CN(Cc2cc(Br)c(O)c(Br)c2)C2CCCCC2)cc1Br |  | > 100 |  | > 100 |  | > 100 |  | > 100 |  | > 100 |  | > 100 |  | > 100 |  | > 100 |  | > 100 |  | > 100
Cc1noc(C)c1-c1ccc2[nH]c(=O)n3c2c1OC[C@@H]3c1ccccn1 | 5.87 | > 100 | 11.5 | > 100 | 1.84 | > 100 | 2.07 | > 100 | > 64.3 | > 100 | 0.959 | > 100 | 1 | > 100 | 2.64 | > 100 | 2.84 | > 100 | 21.4 | > 100
C[C@H]1CCC/C=C/[C@@H]2C[C@H](N)C[C@H]2[C@H](O)/C=C/C(=O)O1 | > 100 | > 100 | 77.3 | > 100 | > 100 | > 100 | 83.2 | > 100 | > 100 | > 100 | > 100 | > 100 | 52.8 | > 100 | > 100 | > 100 | > 100 | > 100 | > 100 | > 100
COc1ccc(NC2=C(Br)C(=O)C(C)=C(C)C2=O)cc1 | 5.07 | 21.8 | 2.67 | > 100 | 13.8 | 27 | 2.33 | > 100 | 15 | 29.1 | 2.25 | > 100 | 14.5 | 28.3 | 12.7 | 31.8 | 1.76 | 3.37 | 11 | 23.2
